Source: patent US20180105838A1, “PROCESS FOR DE NOVO MICROBIAL SYNTHESIS OF TERPENES” (BASF SE, priority 2015, published 2018)

Tests used:
[1] = test system: Methylobacterium extorquens AM1; assay type: cell-based
Method: (§1) 1.6 Dodecane and α-Humulene Tolerance of M. extorquens AM1
M. extorquens AM1 precultures were cultured in test tubes with 5 ml methanol minimal medium (MM) for 48 h. The tolerance of M. extorquens AM1 towards 20% (v/v) dodecane was studied by growth comparison ( OD600) of cultures containing 15 ml MM and cultures with 12 ml MM and 3 ml dodecane. The cultures for the growth comparison with and without dodecane were inoculated from one preculture.

[2] = test system: Methylobacterium extorquens AM1; assay: α-humulene tolerance of M. extorquens AM1 (growth rate comparison, OD600); assay type: cell-based; conditions: FIG. 3
Method: as §1
The α-humulene tolerance was tested in two ways: tolerance towards α-humulene added directly to the aqueous phase and tolerance towards α-humulene dissolved in the organic dodecane layer. For the first experiment, pure α-humulene dissolved in ethanol was added to 100 ml baffled shaker flasks containing 15 ml MM with end concentrations of α-humulene of 1000, 500, 250, 100, 50, 25, 10 and 5 mg/L. Corresponding quantities of ethanol were added to the MM as negative controls. The flasks with the different α-humulene concentrations and the corresponding negative controls were inoculated with a preculture without α-humulene to an OD600 of 0.1. The OD600 was recorded over 30 h.
For the second said experiment, pure α-humulene was dissolved in dodecane and solutions with 1000, 500, 100, 50 and 10 mg/L α-humulene prepared. Two cultures each with 12 ml MM and 3 ml dodecane for each α-humulene concentration were inoculated to an OD600 of 0.1 from a preculture of M. extorquens AM1 without dodecane. Cultures with dodecane without α-humulene were used as negative controls. OD600 was measured over 30 h.
Terpenes often have toxic effects on bacteria. The toxicity of α-humulene to M. extorquens was studied by growth analyses in the presence of different α-humulene concentrations. […]

SMILES | toxic effects or influence on growth [1] | growth-inhibiting effect (growth rate μ compared with μmax without α-humulene) ([2]; α-humulene dissolved directly in the aqueous phase, even at concentrations of 1 g/l) | influence on growth (growth rate μ compared with μmax without α-humulene) ([2]; α-humulene dissolved in the dodecane phase as second organic phase)
CCCCCCCCCCCC [dodecane] | without any toxic effects or influence on growth being observable | – | –
C/C1=C\CC/C(C)=C/CC(C)(C)/C=C/C1 [α-humulene] | – | only minimal growth-inhibiting effects | slightly lesser influence than in the aqueous phase
